These are literature values, as cited in PubChem BioAssay AID493017 (Abbott Labs, 2003).

Sequence of Platelet-derived growth factor receptor alpha (Homo sapiens) (P16234 whole entry, looked up): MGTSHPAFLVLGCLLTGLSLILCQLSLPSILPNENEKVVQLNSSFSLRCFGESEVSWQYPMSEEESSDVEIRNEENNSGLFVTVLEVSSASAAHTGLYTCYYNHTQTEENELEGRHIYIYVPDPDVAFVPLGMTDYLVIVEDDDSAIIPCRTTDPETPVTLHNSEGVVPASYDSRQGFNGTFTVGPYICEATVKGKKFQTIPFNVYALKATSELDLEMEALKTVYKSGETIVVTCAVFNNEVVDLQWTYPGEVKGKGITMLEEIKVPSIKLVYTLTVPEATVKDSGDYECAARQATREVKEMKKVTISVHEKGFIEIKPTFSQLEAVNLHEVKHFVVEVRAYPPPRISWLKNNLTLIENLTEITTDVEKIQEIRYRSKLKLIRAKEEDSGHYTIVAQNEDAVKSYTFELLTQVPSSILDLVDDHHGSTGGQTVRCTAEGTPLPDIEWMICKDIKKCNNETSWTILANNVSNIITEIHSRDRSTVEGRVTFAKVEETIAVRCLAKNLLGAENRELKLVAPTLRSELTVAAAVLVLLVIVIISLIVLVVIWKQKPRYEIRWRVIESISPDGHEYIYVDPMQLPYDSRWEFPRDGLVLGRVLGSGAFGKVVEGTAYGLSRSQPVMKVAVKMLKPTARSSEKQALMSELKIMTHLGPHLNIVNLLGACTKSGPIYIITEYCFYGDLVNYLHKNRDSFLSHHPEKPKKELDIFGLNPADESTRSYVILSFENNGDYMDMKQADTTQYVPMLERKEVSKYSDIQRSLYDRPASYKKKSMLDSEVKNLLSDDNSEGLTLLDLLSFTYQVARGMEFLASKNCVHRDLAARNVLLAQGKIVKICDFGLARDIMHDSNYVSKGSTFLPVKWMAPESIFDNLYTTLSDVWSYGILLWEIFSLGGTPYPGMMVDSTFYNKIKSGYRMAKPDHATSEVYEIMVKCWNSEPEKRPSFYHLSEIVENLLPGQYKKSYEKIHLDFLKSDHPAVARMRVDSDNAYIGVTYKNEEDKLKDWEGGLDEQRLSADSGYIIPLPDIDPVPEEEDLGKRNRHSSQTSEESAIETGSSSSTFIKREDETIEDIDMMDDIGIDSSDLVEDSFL

The data set concerns the target Platelet-derived growth factor receptor alpha (Homo sapiens) (UniProt P16234). Put plainly: PubChem AID 493017. To be noted: WOMBAT literature affinities, multiple human targets; PDGFR; gene PDGFRA; NCBI gene 5156.
Regarding `COc1cc2nccc(Oc3cccc(C)c3)c2cc1OC`, the 50% inhibitory concentration (IC50) was 6900 nM.

Take `COc1cccc(Oc2ccnc3cc(OC)c(OC)cc23)c1`: the 50% inhibitory concentration (IC50) was 440 nM.

For `COc1cc2nccc(Oc3ccc(N(C)C(=O)c4ccc(C(C)(C)C)cc4)cc3)c2cc1OC`, the IC50 is 330 nM.

As to `CCCCc1ccc(C(=O)c2ccc(Oc3ccnc4cc(OC)c(OC)cc34)cc2)cc1`, the IC50 was 150 nM.

On to `COc1cc2nccc(Oc3ccc(NC(=O)c4ccc(C(C)(C)C)cc4)cc3)c2cc1OC`, for which the IC50 is 50 nM.

With `COc1cc2nccc(Oc3cccc(OC)c3OC)c2cc1OC`, the half-inhibitory concentration (IC50) is 4400 nM.

For the compound `COc1cc2nccc(Oc3ccc(C(=O)c4ccccc4C(F)(F)F)cc3)c2cc1OC`, the IC50 was 7200 nM.

In the case of `COc1cc2nccc(Oc3ccccc3)c2cc1OC`, the IC50 was 760 nM.

For the compound `COc1cc2nccc(Oc3ccccc3C(=O)c3ccccc3)c2cc1OC`, the IC50 was 48000 nM.

For the compound `COc1cc2nccc(Oc3ccc(C(=O)c4ccc(C)cc4)cc3)c2cc1OC`, the IC50 was 1700 nM.

Turning to `COc1cc2nccc(Oc3ccc(NC(=O)c4ccc(C(C)=O)cc4)cc3)c2cc1OC`, the IC50 was 3600 nM.

Consider `COc1cc2nccc(Oc3ccc(C(C)=O)cc3)c2cc1OC`, for which the half-maximal inhibitory concentration (IC50) is 15000 nM.
